Assay results published in publication doi:10.1101/2022.02.09.479090v1 (biorxiv, 2022).
Where two headings read alike, the source gives them in different places.

Assays:
AncFT [1] = assay: anaerobic fluorescence titration; set-up: species or system synthetic construct; settings: 100 mM potassium phosphate pH 7.5, 30 °C
RLuc8 [2] = target: T1, RLuc8 (Renilla reniformis, UniProt P27652, A143M/A55T/C124A/K136R/M185V/M253L/S130A/S287L); assay: biochemical
AncFT [3] = assay: anaerobic fluorescence titration; set-up: species or system synthetic construct; settings: 100 mM potassium phosphate pH 7.5, 30 °C; remark: listed apart in the source
AncFT [4] = assay: luminescence progress curves, global numerical fit; assay type: biochemical, synthetic construct; settings: O2 co-substrate; 100 mM phosphate pH 7.5, 37 °C
RLuc8 [5] = target: T1, RLuc8; assay: biochemical; remark: listed apart in the source
AncFT [6] = assay: luminescence progress curves, global numerical fit; assay type: biochemical, synthetic construct; settings: competitive versus coelenterazine; 100 mM phosphate pH 7.5, 37 °C
RLuc8 [7] = target: T1, RLuc8; assay: biochemical; remark: listed apart in the source
purified protein = substrate: Oc1ccc(Cc2nc3c(Cc4ccccc4)nc(-c4ccc(O)cc4)cn3c2O)cc1; assay: purified protein; settings: O2 co-substrate, 100 mM phosphate pH 7.5, 37 °C

Molecule: O=C(Cc1ccc(O)cc1)Nc1ncc(-c2ccc(O)cc2)nc1Cc1ccccc1 [CEI, coelenteramide]
- Kd (AncFT [1]): 16 ± 2 µM
- Kd (RLuc8 [2]): 22 ± 2 µM

Molecule: Oc1ccc(Cc2nc3c(Cc4ccccc4)nc(-c4ccc(O)cc4)cn3c2O)cc1 [CTZ, 2-(p-hydroxybenzyl)-6-(p-hydroxyphenyl)-8-benzylimidazo [1,2-a]pyrazine-3-(7H)-one]
- Kd (AncFT [3]): 12 ± 5 µM
- Km (AncFT [4]): 0.042 µM
- Kd (RLuc8 [5]): 37 ± 15 µM

Molecule: O=c1n(Cc2ccc(O)cc2)nc2c(Cc3ccccc3)nc(-c3ccc(O)cc3)cn12 [azaCTZ, 8-Benzyl-2-(4-hydroxybenzyl)-6-(4-hydroxyphenyl)-[1,2,4]triazolo[4,3-a]pyrazin-3(2H)-one]
- Ki (AncFT [6]): 0.092 ± 0.002 µM
- Ki (RLuc8 [7]): 16.1 µM

B1: RLuc8 (Renilla reniformis; A143M/A55T/C124A/K136R/M185V/M253L/S130A/S287L) (protein)
chain: MTSKVYDPEQRKRMITGPQWWARCKQMNVLDSFINYYDSEKHAENAVIFLHGNATSSYLWRHVVPHIEPVARCIIPDLIGMGKSGKSGNGSYRLLDHYKYLTAWFELLNLPKKIIFVGHDWGAALAFHYAYEHQDRIKAIVHMESVVDVIESWDEWPDIEEDIALIKSEEGEKMVLENNFFVETVLPSKIMRKLEPEEFAAYLEPFKEKGEVRRPTLSWPREIPLVKGGKPDVVQIVRNYNAYLRASDDLPKLFIESDPGFFSNAIVEGAKKFPNTEFVKVKGLHFLQEDAPDEMGKYIKSFVERVLKNEQ
- Km (purified protein): 1.66 µM
